# Assay results: article PMC4008314 (Clinical cancer research : an official journal of the …, 2012)
# Where two headings read alike, the source gives them in different places.
# How the values were obtained:
# [1] = cited from earlier work
# [2] = system: placental growth factor (PlGF); assay: Plasma PlGF by ELISA, baseline vs steady state; assay type: in vivo, children; conditions: at steady state vs baseline, P ≤ 0.001
# [3] = system: circulating endothelial cells (CEC); assay: Circulating endothelial cells by fluorescence-activated cell sorter; assay type: in vivo, children; conditions: paired samples (n = 21), baseline vs end of cycle 1
# [4] = system: circulating endothelial progenitor cells (CEPC); assay: Circulating endothelial progenitor cells by fluorescence-activated cell sorter; assay type: in vivo, children; conditions: paired samples (n = 21), baseline vs end of cycle 1
# refractory solid tumors = assay: Response evaluation, solid tumors; assay type: in vivo, children
# [5] = system: refractory leukemias (AML and FLT3ITD); assay: Response evaluation, leukemias; assay type: in vivo, children; conditions: 2 patients with AML and FLT3ITD
# [6] = in vivo
# [7] = in vivo; remark: listed apart in the source
# [8] = human, in vivo
# plasma VEGF = conditions: paired samples (n = 26), baseline vs end of cycle 1
# endoglin = conditions: paired samples (n = 26), baseline vs end of cycle 1
# [9] = cited from earlier work; remark: listed apart in the source
# multiple tumor types = conditions: cited from earlier work
# [10] = cited from earlier work; remark: listed apart in the source
# advanced HCCs = conditions: adults with advanced HCCs; cited from earlier work
# RCCs = conditions: adults with RCCs; cited from earlier work
# clinical = conditions: human, in vivo
# refractory leukemias = conditions: cited from earlier work
structure (smiles),measurement,setting,value
O=P1(N(CCCl)CCCl)NCCCO1 (centres unmarked) [cyclophosphamide],recommended phase II dose,"[1]; once daily, with sorafenib and bevacizumab",50 mg/m^2
CNC(=O)c1cc(Oc2ccc(NC(=O)Nc3ccc(Cl)c(C(F)(F)F)c3)cc2)ccn1 [Sorafenib],"PlGF, change",[2],increase
same,"CEC number, change",[3],no change
same,"CEPC number, change",[4],no change
same,tumor shrinkage,"refractory solid tumors; 1 patient (#24) with synovial sarcoma, after cycle 1, progression after cycle 2",more than 40%
same,objective responses,refractory solid tumors; patients with solid tumors,no confirmed objective responses
same,patients with stable disease for 4 or more cycles,refractory solid tumors; solid tumor patients,14
same,bone marrow blasts,[5],less than 5%
same,Alopecia grade 1 (non-DLT),[6]; human,1
same,Anorexia grade 2 (non-DLT),[6]; human,1
same,Fatigue grade 2 (non-DLT),[6]; human,2
same,Fever grade 1 (non-DLT),[6]; human,1
same,Hand-foot skin reaction grade 2 (non-DLT),[6]; human,2
same,Headache grade 1 (non-DLT),[6]; human,1
same,Headache grade 2 (non-DLT),[6]; human,1
same,Hemoglobin grade 1 (non-DLT),[6]; human,4
same,Hemoglobin grade 2 (non-DLT),[6]; human,1
same,Hemoglobin grade 3 (non-DLT),[6]; human,1
same,Hypertension grade 1 (non-DLT),[6]; human,3
same,Hypertension grade 3 (non-DLT),[6]; human,1
same,Hypoalbuminemia grade 1 (non-DLT),[6]; human,1
same,Hypocalcemia grade 1 (non-DLT),[6]; human,3
same,Hypophosphatemia grade 2 (non-DLT),[6]; human,1
same,Increased ALT grade 2 (non-DLT),[6]; human,1
same,Increased AST grade 2 (non-DLT),[6]; human,1
same,Increased bilirubin grade 1 (non-DLT),[6]; human,1
same,Increased bilirubin grade 2 (non-DLT),[6]; human,1
same,Leukopenia grade 1 (non-DLT),[6]; human,4
same,Leukopenia grade 2 (non-DLT),[6]; human,2
same,Leukopenia grade 3 (non-DLT),[6]; human,2
same,Lymphopenia grade 1 (non-DLT),[6]; human,2
same,Lymphopenia grade 2 (non-DLT),[6]; human,2
same,Lymphopenia grade 3 (non-DLT),[6]; human,1
same,Nausea grade 3 (non-DLT),[6]; human,1
same,Neutropenia grade 1 (non-DLT),[6]; human,3
same,Neutropenia grade 2 (non-DLT),[6]; human,1
same,Neutropenia grade 3 (non-DLT),[6]; human,2
same,"Pain, Other (jaw) grade 1 (non-DLT)",[6]; human,1
same,Thrombocytopenia grade 2 (non-DLT),[6]; human,1
same,Vomiting grade 1 (non-DLT),[6]; human,1
same,Vomiting grade 3 (non-DLT),[6]; human,1
same,patients who developed a DLT after cycle 1,[6]; human,5
same,Alopecia grade 1 (non-DLT),"[6]; human, 28 day",2
same,Anorexia grade 1 (non-DLT),"[6]; human, 28 day",4
same,Diarrhea grade 2 (non-DLT),"[6]; human, 28 day",1
same,Fatigue grade 1 (non-DLT),"[6]; human, 28 day",4
same,Fatigue grade 2 (non-DLT),"[6]; human, 28 day",2
same,Fever grade 1 (non-DLT),"[6]; human, 28 day",2
same,Hand-foot skin reaction grade 1 (non-DLT),"[6]; human, 28 day",1
same,Hand-foot skin reaction grade 2 (non-DLT),"[6]; human, 28 day",1
same,Headache grade 1 (non-DLT),"[6]; human, 28 day",3
same,Headache grade 2 (non-DLT),"[6]; human, 28 day",1
same,Hypoalbuminemia grade 1 (non-DLT),"[6]; human, 28 day",1
same,Hypoalbuminemia grade 2 (non-DLT),"[6]; human, 28 day",1
same,Hypocalcemia grade 1 (non-DLT),"[6]; human, 28 day",3
same,Hypophosphatemia grade 2 (non-DLT),"[6]; human, 28 day",2
same,Increased ALT grade 2 (non-DLT),"[6]; human, 28 day",1
same,Increased AST grade 2 (non-DLT),"[6]; human, 28 day",1
same,Increased bilirubin grade 2 (non-DLT),"[6]; human, 28 day",1
same,Lymphopenia grade 1 (non-DLT),"[6]; human, 28 day",1
same,Lymphopenia grade 3 (non-DLT),"[6]; human, 28 day",1
same,Mucositis/stomatitis grade 1 (non-DLT),"[6]; human, 28 day",2
same,Nausea grade 2 (non-DLT),"[6]; human, 28 day",2
same,Rash/Desquamation grade 1 (non-DLT),"[6]; human, 28 day",3
same,Rash/Desquamation grade 2 (non-DLT),"[6]; human, 28 day",1
same,Thrombocytopenia grade 1 (non-DLT),"[6]; human, 28 day",4
same,Thrombocytopenia grade 2 (non-DLT),"[6]; human, 28 day",1
same,Hand-foot skin reaction grade 1 (non-DLT),"[6]; human, 28 days",1
same,Hemoglobin grade 1 (non-DLT),"[6]; human, 28 days",3
same,Hemoglobin grade 2 (non-DLT),"[6]; human, 28 days",1
same,Hemoglobin grade 3 (non-DLT),"[6]; human, 28 days",2
same,Hypertension grade 1 (non-DLT),"[6]; human, 28 days",4
same,Hypertension grade 2 (non-DLT),"[6]; human, 28 days",1
same,Hyponatremia grade 1 (non-DLT),"[6]; human, 28 days",3
same,Leukopenia grade 1 (non-DLT),"[6]; human, 28 days",5
same,Leukopenia grade 2 (non-DLT),"[6]; human, 28 days",2
same,Leukopenia grade 3 (non-DLT),"[6]; human, 28 days",2
same,"Pain, Other (forearm) grade 1 (non-DLT)","[6]; human, 28 days",1
same,Rash/Desquamation grade 2 (non-DLT),"[6]; human, 28 days",3
same,recommended phase II dose,"[6]; human, 28 days",200 mg/m^2/dose
same,Lymphopenia grade 1 (non-DLT),"[6]; human, 28 days (course 1)",2
same,Lymphopenia grade 2 (non-DLT),"[6]; human, 28 days (course 1)",1
same,Lymphopenia grade 3 (non-DLT),"[6]; human, 28 days (course 1)",2
same,Neutropenia grade 1 (non-DLT),"[6]; human, 28 days (course 1)",5
same,Neutropenia grade 2 (non-DLT),"[6]; human, 28 days (course 1)",1
same,Neutropenia grade 3 (non-DLT),"[6]; human, 28 days (course 1)",2
same,Thrombocytopenia grade 1 (non-DLT),"[6]; human, 28 days (course 1)",4
same,bony abnormalities on serial plain radiographs,[6],No bony abnormalities
same,Anorexia grade 2 (non-DLT),[7]; human,1
same,Headache grade 2 (non-DLT),[7]; human,1
same,Hyperglycemia grade 1 (non-DLT),[7]; human,1
same,Hypocalcemia grade 2 (non-DLT),[7]; human,1
same,Hypokalemia grade 3 (non-DLT),[7]; human,1
same,Hypomagnesemia grade 1 (non-DLT),[7]; human,2
same,Hypophosphatemia grade 2 (non-DLT),[7]; human,1
same,Increased AST grade 1 (non-DLT),[7]; human,1
same,Increased bilirubin grade 1 (non-DLT),[7]; human,1
same,Nausea grade 1 (non-DLT),[7]; human,1
same,Rash/Desquamation grade 1 (non-DLT),[7]; human,2
same,Anorexia grade 1 (non-DLT),"[7]; human, 28 days",1
same,Anorexia grade 2 (non-DLT),"[7]; human, 28 days",1
same,Diarrhea grade 1 (non-DLT),"[7]; human, 28 days",2
same,Diarrhea grade 2 (non-DLT),"[7]; human, 28 days",1
same,Fatigue grade 2 (non-DLT),"[7]; human, 28 days",2
same,Hyperglycemia grade 1 (non-DLT),"[7]; human, 28 days",2
same,Increased ALT grade 1 (non-DLT),"[7]; human, 28 days",1
same,Increased ALT grade 2 (non-DLT),"[7]; human, 28 days",1
same,Increased AST grade 1 (non-DLT),"[7]; human, 28 days",3
same,Increased AST grade 2 (non-DLT),"[7]; human, 28 days",1
same,Increased bilirubin grade 1 (non-DLT),"[7]; human, 28 days",2
same,Nausea grade 1 (non-DLT),"[7]; human, 28 days",2
same,recommended phase II dose,"[7]; human, 28 days",150 mg/m^2/dose
same,Headache grade 1 (non-DLT),"[7]; human, 28 days (course 1)",1
same,Headache grade 2 (non-DLT),"[7]; human, 28 days (course 1)",1
same,Hyperglycemia grade 2 (non-DLT),"[7]; human, 28 days (course 1)",1
same,Hypoalbuminemia grade 1 (non-DLT),"[7]; human, 28 days (course 1)",1
same,Hypoalbuminemia grade 2 (non-DLT),"[7]; human, 28 days (course 1)",1
same,Hypocalcemia grade 1 (non-DLT),"[7]; human, 28 days (course 1)",1
same,Hypocalcemia grade 2 (non-DLT),"[7]; human, 28 days (course 1)",1
same,Hypokalemia grade 1 (non-DLT),"[7]; human, 28 days (course 1)",2
same,Hypomagnesemia grade 1 (non-DLT),"[7]; human, 28 days (course 1)",1
same,Hypomagnesemia grade 3 (non-DLT),"[7]; human, 28 days (course 1)",1
same,Hyponatremia grade 1 (non-DLT),"[7]; human, 28 days (course 1)",2
same,Hypophosphatemia grade 2 (non-DLT),"[7]; human, 28 days (course 1)",1
same,Hypophosphatemia grade 3 (non-DLT),"[7]; human, 28 days (course 1)",1
same,Proteinuria grade 1 (non-DLT),"[7]; human, 28 days (course 1)",1
same,Proteinuria grade 2 (non-DLT),"[7]; human, 28 days (course 1)",1
same,dose-limiting ALT/AST elevation,[7],No dose-limiting ALT/AST elevation
same,"Tmax, steady state",[8],0.8 h
same,"plasma VEGF concentration, change",plasma VEGF,no change
same,"plasma endoglin concentration, change",endoglin,no change
same,in vitro activity,[9],low micromolar concentrations
same,in vivo antitumor activity,multiple tumor types,growth inhibition observed in multiple tumor types
same,AUC0–12h,"[10]; adults, 400-mg dose after multiple doses",47800 to 76500 ng·h/mL
same,adults requiring dose reductions with chronic administration,[10]; mostly due to skin toxicity and diarrhea,Up to a third
same,recommended fixed dose,"[10]; twice daily, adults",400 mg
same,objective response,advanced HCCs,2%
same,objective response,RCCs,10%
same,half-life,clinical,≥ 24 h
same,AUC(0-t),"clinical; 130 mg/m2, AUC0–24h, day 1",20000 ng·h/mL
same,Tmax,"clinical; 130 mg/m2, Tmax, day 1",7.9 h
same,Tmax,"clinical; 150 mg/m2, Tmax, steady state",3 h
same,AUC(0-t),"clinical; 200 mg/m2, AUC0–24h, day 1",19000 ng·h/mL
same,Cmax,"clinical; 200 mg/m2, Cmax, day 1",1000 ng/mL
same,AUC(0-t),"clinical; 200 mg/m2, median steady-state AUC0–12h",55700 ng·h/mL
same,AUC(0-t),"clinical; 250 mg/m2, AUC0–24h, day 1",27600 ng·h/mL
same,Tmax,"clinical; 250 mg/m2, Tmax, day 1",8 h
same,Tmax,"clinical; […]2, Tmax, day 1",5 h
same,AUC(0-t),clinical; mean (SD) AUC0–12h steady state,61200 ng·h/mL
same,Cmax,"clinical; po, 130 mg/m2, Cmax, day 1",1500 ng/mL
same,AUC(0-t),"clinical; po, 150 mg/m2, AUC0–12h, steady state",49700 ng·h/mL
same,AUC(0-t),"clinical; po, 150 mg/m2, AUC0–24h, day 1",28300 ng·h/mL
same,Cmax,"clinical; po, 150 mg/m2, Cmax, day 1",1900 ng/mL
same,AUC(0-t),"clinical; po, 200 mg/m2, AUC0–12h, steady state",60200 ng·h/mL
same,AUC(0-t),"clinical; po, 200 mg/m2, AUC0–24h, day 1",27300 ng·h/mL
same,Cmax,"clinical; po, 200 mg/m2, Cmax, day 1",1600 ng/mL
same,Cmax,"clinical; po, 200 mg/m2, Cmax, steady state",8300 ng/mL
same,Tmax,"clinical; po, 200 mg/m2, Tmax, steady state",3.4 h
same,Tmax,"clinical; po, […]2, Tmax, day 1",5 h
same,incidence of grade 2 and 3 hand foot skin reactions and rashes,"[1]; children with solid tumors, sorafenib in combination",5 of 19
same,recommended phase II dose,"[1]; twice daily, with bevacizumab and cyclophosphamide",90 mg/m^2/dose
same,sorafenib steady-state (day 7) concentration,"refractory leukemias; 150 mg/m^2, children with refractory leukemia",7.0 ± 1.8 µg/mL
same,sorafenib steady-state (day 7) concentration,"refractory leukemias; 200 mg/m^2, children with refractory leukemia",6.5 ± 3.6 µg/mL
same,patients with complete remission,refractory leukemias; after combination therapy,6
same,patients with decreased blast percentages,refractory leukemias; by day 8,10 of 12
same,conversion of sorafenib to the active N-oxide metabolite,refractory leukemias; children vs that reported in adult patients,much higher rate of conversion
same,incidence of grade 2 and 3 hand foot skin reactions and rashes,"refractory leukemias; children with leukemia, sorafenib in combination",8 of 12
